Values of other authors, collected in paper PMC6379498, “Radiosynthesis and in vivo evaluation of ^11C-labeled BMS-193885 and its desmethyl analog as PET tracers for neuropeptide Y1 receptors” (EJNMMI Radiopharmacy and Chemistry, 2019).
Read-outs that look alike come from different tables or passages of the source.

Assays:
[1] = set-up: method as in Antal-Zimanyi et al. [2008]; details: ref Antal-Zimanyi et al. [2008]; cited from earlier work
[2] = set-up: method as in Antal-Zimanyi et al. [2008]; details: dogs, ref Antal-Zimanyi et al. [2008]; cited from earlier work
[3] = set-up: method as in Antal-Zimanyi et al. [2008]; details: rats, ref Antal-Zimanyi et al. [2008]; cited from earlier work
animal models of obesity = tested on: animal models of obesity; set-up: method as in Antal-Zimanyi et al. [2008]; details: acute and chronic administration, ref Antal-Zimanyi et al. [2008]; cited from earlier work
[4] = set-up: method as in Poindexter et al. [2002]; details: in vitro, unlabeled 1, ref Poindexter et al. [2002]; cited from earlier work
NPY Y1-R = target: NPY Y1-R; set-up: method as in Poindexter et al. [2002]; details: ref Poindexter et al. [2002]; cited from earlier work

SMILES | Brain penetration [1] | Oral bioavailability [1] | Systemic bioavailability [1] | Adverse cardiovascular effects [2] | Adverse cardiovascular effects [3] | Body weight (animal models of obesity) | Food intake (animal models of obesity) | Stability in rat liver microsomes [4] | Ki (NPY Y1-R) [nM]
COC(=O)C1=C(C)NC(C)=C(C(=O)OC)C1c1cccc(NC(=O)NCCCN2CCC(c3cccc(OC)c3)CC2)c1 [Compound 1] | good | lacks oral bioavailability | good | no serious adverse cardiovascular effects | no serious adverse cardiovascular effects | reduced | reduced | good stability | 3.3
COC(=O)C1=C(C)NC(C)=C(C(=O)OC)C1c1cccc(NC(=O)NCCCN2CCC(c3cccc(O)c3)CC2)c1 [Compound 2, Dimethyl 4-(3-(3-(3-(4-(3-hydroxyphenyl)piperidin-1-yl)propyl)ureido)phenyl)-2,6-dimethyl-1,4-dihydropyridine-3,5-dicarboxylate] | – | – | – | – | – | – | – | – | 2.7
